Assays:
[1] = test system: delta progenitor cells; test: Differentiation of delta progenitor cells to pre-delta cells (stage 5), flow cytometry; format: cell-based, human
Method: (§1) The differentiation was carried out in six stages. The generation of PP1 cells from HUES8 cells was carried out using prior protocols with modifications (see, e.g., Pagliuca et al., Cell, 159:428-439 (2014); and Peterson et al., Nat. Commun., 11:Article No. 2241 (14 pages) (2020)); and the delta cell differentiation was further carried out using PP1 cells. The media changes for differentiation were as follows:
(§2) The cell clusters collected during the course of differentiation at different stages were dissociated into single cell suspension by treating with TrypLE Express at 37° C. for 10 minutes after washing twice with phosphate buffered saline (PBS). The enzyme activity was quenched by adding equal volume of S3 media to prevent further degradation, and dispersed single cells were washed with PBS, fixed in 4% paraformaldehyde (PFA) for 20 minutes and subsequently stored at 4° C. until further use. On the day of staining, the cells were passed through 40 μm filter and washed twice with PBS before permeabilizing in block solution (PBS+0.1% Triton X-100+5% donkey serum; PBST). After 40 minutes of blocking, the cells were incubated with primary antibodies in block solution for 1 hour at room temperature (RT), washed twice with PBST, and then incubated with appropriate secondary antibodies in block solution for 1 hour at RT. Finally, cells were washed twice with PBST and resuspended in PBS at a concentration of 1×10^6 cells/mL. The stained cells were acquired in Attune flow cytometer and were analyzed using FlowJo v10 software. The Pdx1 (R&D Systems, AF2419) antibody was used at 1:250, Nkx6.1 (Iowa Hybridoma Bank, F55A12) at 1:100, insulin (Iowa Hybridoma Bank, GN-ID4) at 1:250, glucagon (LSBio, LS-B10219) at 1:25,000, and somatostatin (Santa Cruz Biotechnologies, SC-25262) at a dilution of 1:8000. The secondary antibodies are either donkey-anti-goat-Alexa Fluor 488 (Invitrogen, A-11055, 1:1000), donkey-anti-rabbit-Alexa Fluor 488 (Invitrogen, A-21206, 1:1000), donkey-anti-rat-Alexa Fluor 594 (Invitrogen, A-21209, 1:1000), or donkey-anti-mouse-Alexa Fluor 647 (Invitrogen, A-31571 1:1000).
(§3) Compounds that increased the percentage of Pre-Delta (PD) cells (positive for somatostatin (SST) while negative for both insulin (INS) and glucagon (GCG)) and reduced the percentage of polyhormonal cells were considered as hits. […] The library was screened at 20 μM, 2 μM, and 0.2 μM final concentrations (FIG. 22).

[2] = test system: delta progenitor cells; test: High-content small molecule screen on delta progenitor cells (step 5); format: cell-based, human; conditions: library screened at 20 μM, 2 μM and 0.2 μM
Method: as §3

[3] = test system: PDX1^+/NKX6.1^− PP cells; test: Differentiation of PP cells to delta progenitor cells (stage 4), hormone expression by flow cytometry; format: cell-based, human; conditions: stage 3 cells treated independently or in combination for 5 days
Method: After 72 hours of culture in mTeSR, the clusters of HUES8 cells were allowed to settle at the bottom of the spinner flask, and spent media was replaced with stage specific differentiation media containing specific growth factors and small molecules.
as §1
(§4) The cell clusters collected during the course of differentiation at different stages were dissociated into single cell suspension by treating with TrypLE Express at 37° C. for 10 minutes after washing twice with phosphate buffered saline (PBS). The enzyme activity was quenched by adding equal volume of S3 media to prevent further degradation, and dispersed single cells were washed with PBS, fixed in 4% paraformaldehyde (PFA) for 20 minutes and subsequently stored at 4° C. until further use. […] The stained cells were acquired in Attune flow cytometer and were analyzed using FlowJo v10 software. […]

[4] = test system: PP cells; test: PP cells treated with FGF receptor inhibitors along with RA, somatostatin expressing cells; format: cell-based, human; conditions: control having only RA, six-well plates, 5 days
Method: as §4, with “use. On the day of staining, the cells were passed through 40 μm filter and washed twice with PBS before permeabilizing in block solution (PBS+0.1% Triton X-100+5% donkey serum; PBST).” for “use.”
To further explore the specificity of inhibition of FGF receptors, PP cells were treated with five additional FGF receptor inhibitors (AZD4547, erdafitinib, roblitinib, pemigatinib, or BGJ398) along with RA (FIG. 7). […] To find an effective concentration of these compounds, differentiated PP cells were transferred to six-well plates and treated with either control having only RA or each FGF receptor inhibitors along with RA for 5 days and quantified the percentage of somatostatin expressing cells.

[5] = test system: pre-delta cells; test: High-content small molecule screen and dose response on pre-delta cells (step 6); conditions: for cell loss at higher concentration: dose response, step 6
Method: Clusters were collected from either Stage 3, or Stage 4, or Stage 5 completed flasks, washed three times with PBS, dispersed into single cells using TrypLE Express for 10 minutes, and quenched using S3 media. […] Chemical compounds were then introduced to each well and incubated at 37° C. in a humidified atmosphere. The fresh media and compounds were added every other day by replacing the spent media. After 5 days for Stage 3 completed cells, 4 days for Stage 4 completed cells, and 7 days for Stage 5 completed cells of incubation, the cells were fixed with 4% PFA and stained for insulin, glucagon, and somatostatin as described herein. Stained cells were imaged with the Cellomics Scan Version 6.6.0 (Thermo Scientific HCS Studio). Twenty-five view fields were captured for each well and analyzed. The percentage of cells expressing only somatostatin was calculated for each well.
Thus, to further increase the percentage of monohormonal SC-δ cells, a small molecule screen on pre-delta cells was conducted, as described earlier with a similar set of criteria (FIG. 2D).

[6] = test system: pre-delta cells; test: Differentiation of pre-delta cells to SCδ cells (stage 6), flow cytometry and immunohistochemistry; format: cell-based, human
Method: as §1, §2
The differentiated cell clusters or human islets were fixed in 4% PFA and stored at 4° C. until further use. The clusters were washed three times with PBS, set in Histogel (Thermo), embedded in paraffin, and sectioned at 4 μm for histological analysis. Antigen retrieval was performed in citrate buffer (pH 6.5) for 1 hour in boiling water bath on deparaffinized and rehydrated sections, and then allowed to cool for 40 minutes. Sections were then permeabilized and blocked in block solution (PBS+0.1% Triton X-100+5% donkey serum; PBST) for 40 minutes. Primary antibodies were added at appropriate dilutions and incubated overnight at 4° C. On the following day, secondary antibodies were added for 1 hour at room temperature. After thorough rinse with PBST, sections were mounted in Vectashield (Vector Laboratories), covered with coverslips, and sealed with nail polish. The sections were visualized using Zeiss microscope. The secondary antibodies are either donkey-anti-goat-Alexa Fluor 488 (Invitrogen, A-11055, 1:1000), donkey-anti-rabbit-Alexa Fluor 488 (Invitrogen, A-21206, 1:1000), donkey-anti-rat-Alexa Fluor 594 (Invitrogen, A-21209, 1:1000), or donkey-anti-mouse-Alexa Fluor 647 (Invitrogen, A-31571 1:1000).

For `Cc1cccc(-c2[nH]ncc2-c2ccc3ncccc3n2)n1` [Alk5 inhibitor II, 2-[5-(6-methylpyridin-2-yl)-1H-pyrazol-4-yl]-1,5-naphthyridine], the “monohormonal SC-delta cells on omission of the compound from stage 5” value ([1]; Indolactam V and γ-secretase inhibitor XX without Alk5inh II, FIG. 24C) was “significant reduction in monohormonal SC-delta cells”, the “resulting cells express somatostatin” value ([1]; delta progenitor cells treated with Alk5i II, FIG. 1D) was “approximately 8%” and the SC-α cells population ([1]; stage 5, flow cytometry) was 14.78±1.72%. For the same compound, the SC-β cells population ([1]; stage 5, flow cytometry) was 5.20±0.72%, the “SST^+GCG^+INS^+ cells” value ([1]; stage 5, flow cytometry) was 15.46±15.07% and the “SST^−GCG^−INS^− cells” value ([1]; stage 5, flow cytometry) was 20.97±7.59%. The polyhormonal cells ([1]; stage 5, flow cytometry) was 54.88±6.74% and the “pre-delta cells (somatostatin positive, insulin and glucagon negative)” value ([1]; stage 5, flow cytometry) was 4.11±1.12%.

For `c1ccc2c(-c3cnn4cc(-c5ccc(N6CCNCC6)cc5)cnc34)ccnc2c1` [LDN193189, 4-[6-(4-piperazin-1-ylphenyl)pyrazolo[1,5-a]pyrimidin-3-yl]quinolin], the “screen outcome, step 5 (increase of pre-delta cells, fewer polyhormonal cells)” value [2] was “primary hits”.

In the case of `CCN(CC)CCCCNc1ncc2cc(-c3cc(OC)cc(OC)c3)c(NC(=O)NC(C)(C)C)nc2n1` [PD173074, 1-tert-butyl-3-[2-[4-(diethylamino)butylamino]-6-(3,5-dimethoxyphenyl)pyrido[2,3-d]pyrimidin-7-yl]urea], the “somatostatin expression in PP cells” value [3] was “induced a small population of somatostatin expression”.

Work on `CC1=C(/C=C/C(C)=C/C=C/C(C)=C/C(=O)O)C(C)(C)CCC1` [RA, retinoic acid] yielded a somatostatin expressing cells [4] of 2.53±0.15%.

For `C=C[C@@]1(C)CC(=O)[C@]2(O)[C@@]3(C)[C@@H](O)CCC(C)(C)[C@@H]3[C@H](O)[C@H](OC(C)=O)[C@@]2(C)O1` [forskolin, [(3R,4aR,5S,6S,6aS,10S,10aR,10bS)-3-ethenyl-6,10,10b-trihydroxy-3,4a,7,7,10a-pentamethyl-1-oxo-5,6,6a,8,9,10-hexahydro-2H-benzo[f]chromen-5-yl]acetate], the “cell loss at higher concentration” value [5] was “severe cell loss”, the SCδ cells ([6]; 200 μM for 7 days, stage 6, flow cytometry) was 17.51±0.88% and the “percentage of SC-δ cells after long-term culture” value ([6]; forskolin withdrawn from S3 media, cultured for additional two weeks) was 31.15±1.30%. For the same compound, the SC-α cells ([6]; stage 6, flow cytometry) was 0.79±0.14%, the “SST^+GCG^+INS^+ cells” value ([6]; stage 6, flow cytometry) was 11.02±0.60% and the “SST^−GCG^+INS^+ cells” value ([6]; stage 6, flow cytometry) was 2.36±0.36%.

For `CC(C)[C@H]1C(=O)N[C@H](CO)Cc2c[nH]c3cccc(c23)N1C` [indolactam V, (10S,13S)-13-(hydroxymethyl)-9-methyl-10-propan-2-yl-3,9,12-triazatricyclo[6.6.1.0^4,15]pentadeca-1,4(15),5,7-tetraen-11-one], the “screen outcome, step 5 (increase of pre-delta cells, fewer polyhormonal cells)” value [2] was “primary hits”, the “dose response, monohormonal SCδ cells” value ([5]; FIG. 2F, FIG. 24B) was “dose dependent increase in monohormonal SCδ cells” and the “cell loss at higher concentration” value [5] was “severe cell loss”. The “screen outcome, step 6 (increase of monohormonal SC-δ cells)” value ([5]; library screened at 20 μM, 2 μM and 0.2 μM) was “primary hits”.

With `C[C@H](NC(=O)Cc1cc(F)cc(F)c1)C(=O)N[C@@H]1C(=O)N(C)c2ccccc2-c2ccccc21` [γ-secretase inhibitor XX, N-[(1S)-2-[[(7S)-6,7-dihydro-5-methyl-6-oxo-5H-dibenz[b,d]azepin-7-yl]amino]-1-methyl-2-oxoethyl]-3,5-difluoro-benzeneacetamide] the “screen outcome, step 5 (increase of pre-delta cells, fewer polyhormonal cells)” value [2] was “primary hits”.

Reference: patent US20260218132A1, “METHODS AND MATERIALS FOR GENERATING STEM CELL-DERIVED ENDOCRINE CELL TYPES” (Mayo Foundation for Medical Education and Research, priority 2023, published 2026)
